Series [1] in a line: Metabolic stability in mouse liver microsomes. The series is classed as in vitro ADME. A digest of the protocol:
(§1)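 Compound incubated with human, dog, rat or mouse liver microsomes in 100 mM potassium phosphate, pH 7.4, at 37 °C. Reaction started with an NADPH regenerating system. Samples quenched at 0, 10, 30 and 90 min, and remaining compound measured by LC-MS/MS.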
For orientation: Liver microsomes are a subcellular fraction often used to study metabolism.

Series [2] addresses T1, GHSR-1a (HEK293/GHSR1a cell line) (Homo sapiens, UniProt Q92847).
T1 construct: expressed in transfected cells; host or cells: HEK293/GHSR1a cell line
Kind of series: Ghrelin antagonist potency (IC50) with calcium FLIPR assay, ghrelin 10 nM. The series is classed as cell-based. Put shortly:
(§2)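 HEK293/GHSR1a cells, seeded 24 hr ahead and loaded with calcium dye 30-60 min, were read by FLIPR fluorescence for 2 min after addition at t=20 sec. Agonism: compound alone, EC50 from dose-response. Antagonism: compound plus 10 nM ghrelin, IC50 from reduction of ghrelin response.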

Series [3] concerns the target T2, recombinant human ghrelin receptor (HEK293/GRLN) (Homo sapiens, UniProt Q92847).
T2 construct: expressed in transfected cells
Kind of series: Ghrelin inverse agonist potency (EC50) with IP-1 (IP-One HTRF) assay. The class given is cell-based. Particulars: IP-1 assay. A digest of the protocol: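 HEK293/GRLN cells were seeded 18-22 hours before the test, then exposed to compound in stimulation buffer for 1 hour at 37° C, 5% CO2. IP-1 was detected by IP-One HTRF (IP1-d2 plus Tb-cryptate, 1 hour RT), reading 620 and 665 nm; the inverse agonist EC50 was derived from this.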

Series [4] is described as follows: Metabolic stability in human liver microsomes. The series is classed as in vitro ADME. Put shortly:
as §1

Series [5] concerns the target T1, GHSR-1a (HEK293/GHSR1a cell line). Kind of series: Ghrelin agonist potency (EC50) with calcium FLIPR assay. The series is classed as cell-based. A digest of the protocol: as §2
The mark [6] stands for this setting: ghrelin antagonist potency, read-out: Activity IC50.
Setting [7] is: ghrelin inverse agonist potency, read-out: Activity EC50.
[8] abbreviates: ghrelin agonist potency, read-out: Activity EC50/EMax.
[9] abbreviates: HEK293/GHSR1a, ghrelin 10 nM, read-out: Activity IC50 (ghrelin antagonist potency).
Setting [10] is: HEK293/GRLN, read-out: Activity EC50 (ghrelin inverse agonist potency).
Where [11] appears, read: HEK293/GHSR1a, read-out: Activity EC50/EMax: EC50 (ghrelin agonist potency).

Where two headings read alike, the source gives them in different places.

T2 sequence (Q92847 whole entry): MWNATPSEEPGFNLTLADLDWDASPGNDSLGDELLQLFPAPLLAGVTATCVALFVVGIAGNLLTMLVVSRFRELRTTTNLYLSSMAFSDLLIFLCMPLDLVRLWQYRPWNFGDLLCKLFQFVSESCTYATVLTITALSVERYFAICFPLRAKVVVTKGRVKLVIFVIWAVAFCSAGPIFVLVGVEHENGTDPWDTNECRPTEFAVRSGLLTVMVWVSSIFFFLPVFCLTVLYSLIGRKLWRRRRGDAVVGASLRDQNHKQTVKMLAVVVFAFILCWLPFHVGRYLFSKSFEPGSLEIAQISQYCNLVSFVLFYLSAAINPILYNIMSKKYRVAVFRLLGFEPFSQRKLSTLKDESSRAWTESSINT
T1 sequence (Q92847 whole entry): as above

In general, IC50 refers to the concentration needed to halve the response being measured. For `C[C@@H](NC(=O)Nc1ccc(S(=O)(=O)Cc2ccc3c(c2)C(F)CN(C)C3)cc1)c1cccc(Cl)c1Cl` (stereo partly drawn) [H1538, 1-((R)-1-(2,3-dichlorophenyl)ethyl)-3-(4-(((4-fluoro-2-methyl-1,2,3,4-tetrahydroisoquinolin-6-yl)methyl)sulfonyl)phenyl)urea], the “Metabolic Stability Study M = mouse” value in series [1] is 354 µL/min/mg. In series [2] (setting [6]), the IC50 turned out to be 172 nM. The EC50 in series [3] (setting [7]) is 8.6 nM; in series [5] (setting [8]), more than 30000 nM. In series [4], the “Metabolic Stability Study H = human” value was determined as 237.3 µL/min/mg.

For the compound `COc1cccc(C(C)NC(=O)Nc2ccc(S(=O)(=O)Cc3ccc4c(c3)CN(C)C4)cc2)c1` (stereo not drawn) [H1326, 1-(1-(3-methoxyphenyl)ethyl)-3-(4-(((2-methylisoindolin-5-yl)methyl)sulfonyl)phenyl)urea], the “Metabolic Stability Study M = mouse” value in series [1] was 60.5 µL/min/mg. For the same compound, the IC50 in series [2] (setting [9]) was 9.8 nM. The EC50 in series [3] (setting [10]) was 6.9 nM; in series [5] (setting [11]), more than 30000 nM. Further, the “Metabolic Stability Study H = human” value in series [4] turned out to be 129.5 µL/min/mg.

`C[C@@H](NC(=O)Nc1ccc(S(=O)(=O)Cc2ccc3c(c2F)CN(C)C3)cc1)c1ccccc1` [H1363, (R)-1-(4-(((4-fluoro-2-methylisoindolin-5-yl)methyl)sulfonyl)phenyl)-3-(1-phenylethyl)urea]: the “Metabolic Stability Study M = mouse” value in series [1] came out at 335.3 µL/min/mg. In addition, the IC50 in series [2] (setting [9]) was 8.4 nM. For the same compound, the EC50 in series [3] (setting [10]) is 3.15 nM; in series [5] (setting [11]) it was more than 30000 nM. Besides, the “Metabolic Stability Study H = human” value in series [4] stood at 140.1 µL/min/mg.

Regarding `CC(NC(=O)Nc1ccc(S(=O)(=O)Cc2ccc3c(c2)CN(C)C3)cc1)c1cccc(Cl)c1` (stereo not drawn) [H1266, 1-(1-(3-chlorophenyl)ethyl)-3-(4-(((2-methylisoindolin-5-yl)methyl)sulfonyl)phenyl)urea], the “Metabolic Stability Study M = mouse” value in series [1] came to 106.1 µL/min/mg. Besides, the IC50 in series [2] (setting [9]) was determined as 24.2 nM. Besides, the EC50 is 19.1 nM in series [3] (setting [10]) and more than 30000 nM in series [5] (setting [11]). In addition, in series [4], the “Metabolic Stability Study H = human” value was 169.4 µL/min/mg.

On to `C[C@@H](NC(=O)Nc1ccc(S(=O)(=O)Cc2ccc3c(c2)CCN(C)C3)cc1)c1cccc(Cl)c1Cl` [H1343, (R)-1-(1-(2,3-dichlorophenyl)ethyl)-3-(4-(((2-methyl-1,2,3,4-tetrahydroisoquinolin-6-yl)methyl)sulfonyl)phenyl)urea], for which the “Metabolic Stability Study M = mouse” value in series [1] came out at 252.4 µL/min/mg. Further, the IC50 in series [2] (setting [9]) was 5.2 nM. In addition, the EC50 in series [3] (setting [10]) was 2.1 nM; in series [5] (setting [11]), more than 30000 nM. Besides, in series [4], the “Metabolic Stability Study H = human” value was 71.9 µL/min/mg.

`COc1cc(S(=O)(=O)Cc2ccc3c(c2)CN(C)C3)ccc1NC(=O)NC(C)c1cccc(Cl)c1Cl` (stereo not drawn) [H1427, 1-(1-(2,3-dichlorophenyl)ethyl)-3-(2-methoxy-4-(((2-methylisoindolin-5-yl)methyl)sulfonyl)phenyl)urea]: the “Metabolic Stability Study M = mouse” value in series [1] is 82.1 µL/min/mg. For the same compound, in series [2] (setting [9]), the IC50 amounted to 3.8 nM. Further, the EC50 in series [3] (setting [10]) is 0.7 nM; in series [5] (setting [11]), more than 30000 nM. Besides, the “Metabolic Stability Study H = human” value in series [4] was determined as 58.8 µL/min/mg.

For the compound `CC(NC(=O)Nc1ccc(S(=O)(=O)Cc2ccc3c(c2)CNC3)cc1)c1ccccc1F` (stereo not drawn) [H1272, 1-(1-(2-fluorophenyl)ethyl)-3-(4-((isoindolin-5-ylmethyl)sulfonyl)phenyl)urea], the “Metabolic Stability Study M = mouse” value in series [1] worked out at 18.6 µL/min/mg. In addition, the IC50 in series [2] (setting [9]) is 23.5 nM. Also, the values for the EC50 in series [3] (setting [10]) and in series [5] (setting [11]) were 5.3 nM and more than 30000 nM, respectively. Moreover, the “Metabolic Stability Study H = human” value in series [4] stood at 18.4 µL/min/mg.

Turning to `C[C@@H](NC(=O)Nc1ccc(S(=O)(=O)Cc2ccc3c(c2F)CNC3)cc1)c1ccccc1` [H1396, (R)-1-(4-(((4-fluoroisoindolin-5-yl)methyl)sulfonyl)phenyl)-3-(1-phenylethyl)urea], in series [1], the “Metabolic Stability Study M = mouse” value came out at 330.4 µL/min/mg. Also, the 50% inhibitory concentration (IC50) in series [2] (setting [9]) came out at 10.8 nM. The EC50 is 1.3 nM in series [3] (setting [10]) and more than 30000 nM in series [5] (setting [11]). The “Metabolic Stability Study H = human” value in series [4] was 62.5 µL/min/mg.

As for `COc1cc(S(=O)(=O)Cc2ccc3c(c2)CCN(C)C3)ccc1NC(=O)NC(C)c1cccc(Cl)c1Cl` (stereo not drawn) [H1428, 1-(1-(2,3-dichlorophenyl)ethyl)-3-(2-methoxy-4-(((2-methyl-1,2,3,4-tetrahydroisoquinolin-6-yl)methyl)sulfonyl)phenyl)urea], the “Metabolic Stability Study M = mouse” value in series [1] amounted to 194.8 µL/min/mg. In series [2] (setting [9]), the IC50 came to 3.3 nM. The EC50 was 0.5 nM in series [3] (setting [10]) and more than 30000 nM in series [5] (setting [11]). In series [4], the “Metabolic Stability Study H = human” value stood at 69.3 µL/min/mg.

As for `CC(NC(=O)Nc1ccc(S(=O)(=O)Cc2ccc3c(c2F)CNC3)cc1)c1c(F)cccc1F` (stereo not drawn) [H1410], the “Metabolic Stability Study M = mouse” value in series [1] was 358.6 µL/min/mg. Besides, in series [2] (setting [9]), the IC50 came out at 32 nM. For the same compound, the EC50 in series [3] (setting [10]) was 13.2 nM; in series [5] (setting [11]), more than 30000 nM. Also, the “Metabolic Stability Study H = human” value in series [4] is 73.3 µL/min/mg.

Regarding `Cc1cc(S(=O)(=O)Cc2ccc3c(c2)CN(C)C3)ccc1NC(=O)NC(C)c1ccccc1` (stereo not drawn) [H1447, 1-(2-methyl-4-(((2-methylisoindolin-5-yl)methyl)sulfonyl)phenyl)-3-(1-phenylethyl)urea], the “Metabolic Stability Study M = mouse” value in series [1] stood at 42.6 µL/min/mg. In addition, in series [2] (setting [9]), the IC50 is 100 nM. In addition, the results for the EC50 in series [3] (setting [10]) and in series [5] (setting [11]) were 6.5 nM and more than 30000 nM, respectively. For the same compound, in series [4], the “Metabolic Stability Study H = human” value is 72.5 µL/min/mg.

In the case of `CN1Cc2ccc(CS(=O)(=O)c3ccc(NC(=O)NC4CCCc5ccccc54)cc3)cc2C1` (stereo not drawn) [H1312, 1-(4-(((2-methylisoindolin-5-yl)methyl)sulfonyl)phenyl)-3-(1,2,3,4-tetrahydronaphthalen-1-yl)urea], the “Metabolic Stability Study M = mouse” value in series [1] worked out at 117.5 µL/min/mg. Further, the IC50 in series [2] (setting [9]) is 69 nM. Also, the EC50 in series [3] (setting [10]) was 85.8 nM; in series [5] (setting [11]) it was more than 30000 nM. For the same compound, in series [4], the “Metabolic Stability Study H = human” value is 93.5 µL/min/mg.

Regarding `CC(NC(=O)Nc1ccc(S(=O)(=O)Cc2ccc3c(c2)CNC3)cc1C1CC1)c1ccccc1` (stereo not drawn) [H1484, 1-(2-cyclopropyl-4-((isoindolin-5-ylmethyl)sulfonyl)phenyl)-3-(1-phenylethyl)urea], the “Metabolic Stability Study M = mouse” value in series [1] was determined as 149.3 µL/min/mg. For the same compound, in series [2] (setting [6]), the IC50 came to 21.7 nM. Further, the EC50 in series [3] (setting [7]) is 7.1 nM; in series [5] (setting [8]), more than 30000 nM. Moreover, in series [4], the “Metabolic Stability Study H = human” value is 116.7 µL/min/mg.

In the case of `COC(=O)c1cc(NC(=O)NC(C)c2ccccc2)ccc1S(=O)(=O)Cc1ccc2c(c1)CNC2` (stereo not drawn) [H1505, methyl 2-((isoindolin-5-ylmethyl)sulfonyl)-5-(3-(1-phenylethyl)ureido)benzoate], the “Metabolic Stability Study M = mouse” value in series [1] was found to be 135.5 µL/min/mg. The IC50 in series [2] (setting [6]) was found to be 8.28 nM. For the same compound, the figures for the EC50 in series [3] (setting [7]) and in series [5] (setting [8]) were 11.7 nM and more than 30000 nM, respectively. Also, the “Metabolic Stability Study H = human” value in series [4] amounted to 37.3 µL/min/mg.

Consider `CC(c1cccc(Cl)c1Cl)N(O)C(=O)Nc1ccc(S(=O)(=O)Cc2ccc3c(c2)CNC3)cc1.O=C(O)C(F)(F)F` (stereo not drawn) [H1509, 1-(1-(2,3-dichlorophenyl)ethyl)-1-hydroxy-3-(4-((isoindolin-5-ylmethyl)sulfonyl)phenyl)urea], for which the “Metabolic Stability Study M = mouse” value in series [1] stood at 16.0 µL/min/mg. In series [2] (setting [6]), the IC50 stood at 0.336 nM. Also, the EC50 was 1 nM in series [3] (setting [7]) and more than 30000 nM in series [5] (setting [8]). In series [4], the “Metabolic Stability Study H = human” value stood at 15.9 µL/min/mg.

With `COc1cc(S(=O)(=O)Cc2ccc3c(c2)CCNC3)ccc1NC(=O)NC(C)c1ccccc1` (stereo not drawn) [H1386, 1-(2-methoxy-4-(((1,2,3,4-tetrahydroisoquinolin-6-yl)methyl)sulfonyl)phenyl)-3-(1-phenylethyl)urea], the “Metabolic Stability Study M = mouse” value in series [1] turned out to be 11 µL/min/mg. Also, in series [2] (setting [9]), the IC50 is 21.2 nM. In addition, the EC50 in series [3] (setting [10]) is 11.7 nM; in series [5] (setting [11]) it was more than 30000 nM. The “Metabolic Stability Study H = human” value in series [4] is less than 10 µL/min/mg.

Consider `C[C@@H](NC(=O)Nc1ccc(S(=O)(=O)Cc2cc(F)c3c(c2)CNC3)cc1)c1ccccc1.Cl` [H1394, (R)-1-(4-(((7-fluoroisoindolin-5-yl)methyl)sulfonyl)phenyl)-3-(1-phenylethyl)urea], for which the “Metabolic Stability Study M = mouse” value in series [1] is 182.5 µL/min/mg. Further, the IC50 in series [2] (setting [9]) is 51.9 nM. Besides, the EC50 in series [3] (setting [10]) is 7.8 nM; in series [5] (setting [11]) it was more than 30000 nM. Further, the “Metabolic Stability Study H = human” value in series [4] is 67.4 µL/min/mg.

As for `COc1cc(S(=O)(=O)Cc2ccc3c(c2)CNC3)ccc1NC(=O)N(O)C(C)c1ccccc1` (stereo not drawn) [H1517, 1-hydroxy-3-(4-((isoindolin-5-ylmethyl)sulfonyl)-2-methoxyphenyl)-1-(1-phenylethyl)urea], the “Metabolic Stability Study M = mouse” value in series [1] turned out to be 56.6 µL/min/mg. Moreover, in series [2] (setting [6]), the IC50 was determined as 10.5 nM. Besides, the EC50 was 6.7 nM in series [3] (setting [7]) and more than 30000 nM in series [5] (setting [8]). The “Metabolic Stability Study H = human” value in series [4] was 25.6 µL/min/mg.

(Values after patent US10501479B2, “Benzenesulfonyl-asymmetric ureas and medical uses thereof” (HELSINN HEALTHCARE SA, priority 2016, dated 2019).)
